Assay results published in US5674911A, “Antiinfective polyoxypropylene/polyoxyethylene copolymers and methods of use” (Cytrx Corporation, priority 1995, dated 1997).

What was measured:
HIV-1 (strain LAV-1) = assay: anti-HIV-1 assay in PBMC (reverse transcriptase activity); format: cell-based; conditions: Human immunodeficiency virus 1, PBMC, 144 h, read-out: Anti-HIV-1 in PBMC: EC50
in vitro = conditions: human, pha-stimulated pbmc
[1] = growth / cytotoxicity in Vero cells; conditions: african green monkey, vero cells
Vero cells = assay: growth / cytotoxicity in Vero cells; conditions: Chlorocebus sabaeus, Vero, 96 h, read-out: % Growth inhibition, Vero
[2] = system: human peripheral blood mononuclear cells (PBMC); assay: growth / cytotoxicity in uninfected mitogen stimulated human PBMC; conditions: 144 h, read-out: % Growth inhibition, PBMC
Mycobacterium avium = assay: growth index of Mycobacterium avium in Bactec 7H12 Middlebrook broth (14C fatty acid); conditions: 0.04 μg/ml (FIG. 35)

## Cc1cn([C@H]2C[C@H](N=[N+]=[N-])[C@@H](CO)O2)c(=O)[nH]c1=O [AZT, azidothymidine]
HIV-1 (strain LAV-1)
  EC50: 5.6 nM
In vitro
  CC50 at 144 h: > 100 µM
[1]
  CC50 at 96 h: 50.6 µM
Vero cells
  inhibition at 0.1 µM: -1.8%
  inhibition at 1 µM: 10.2%
  inhibition at 10 µM: 20.7%
  inhibition at 50 µM: 47.4%
  inhibition at 100 µM: 66.3%
[2]
  inhibition at 0.1 µM: -8.9%
  inhibition at 1 µM: -2.2%
  inhibition at 10 µM: 5.5%
  inhibition at 50 µM: 16.8%
  inhibition at 100 µM: 28.4%

## CO[C@H]1/C=C/O[C@@]2(C)Oc3c(C)c(O)c4c(O)c(c(/C=N/N5CCN(C)CC5)c(O)c4c3C2=O)NC(=O)/C(C)=C\C=C\[C@H](C)[C@H](O)[C@@H](C)[C@@H](O)[C@@H](C)[C@H](OC(C)=O)[C@@H]1C [Rifampin, rifampin]
Mycobacterium avium
  inhibiting growth of M. avium: effective in inhibiting growth
